# Experimental data as given in patent US12636316B2, “Pharmaceutical composition for preventing or treating myositis, comprising isolated mitochondria as active ingredient” (PAEAN BIOTECHNOLOGY INC., priority 2019, dated 2026).
# Experiment: Membrane potential of mitochondria (JC-1 dye)
# Assay type: biochemical
# Settings: 5 μg mitochondria mixed in 50 μL CCCP, room temperature 10 minutes, JC-1 2 μM
# Experimental: In order to measure the membrane potential of the mitochondria isolated in Preparation Example 1, the mitochondrial protein concentration of the isolated mitochondria was quantified through the BCA to prepare 5 μg of mitochondria. The membrane potential of the mitochondria was measured using a JC-1 (molecular probes, cat no.1743159) dye.
# Specifically, as an experimental group, 5 μg of the prepared mitochondria was mixed in 50 μL of PBS and then dispensed in a 96-well plate. In addition, as a control group, 50 μL of PBS without mitochondria was dispensed in a 96-well plate. In addition, as an additional experimental group, 5 μg of mitochondria was mixed in 50 μL of CCCP (R&D systems, CAS 555-60-2), then reacted at room temperature for 10 minutes, and then dispensed in a 96-well plate. In this case, CCCP is an ion transporter of mitochondria and depolarizes the membrane potential of mitochondria, thereby inhibiting the function of mitochondria.
# Thereafter, each well was treated and reacted with the JC-1 dye so that the concentration was 2 μM, and then the absorbance was measured using a fluorescence microplate reader. […] The membrane potential of mitochondria was analyzed by calculating the ratio of […].
smiles,measurement,value
N#CC(C#N)=NNc1cccc(Cl)c1 [CCCP],membrane potential activity,low membrane potential activity
